Laboratory results published in US10519162B2, “6,7-dihydropyrazolo[1,5-α]pyrazin-4(5H)-one compounds and their use as negative allosteric modulators of mGluR2 receptors” (Janssen Pharmaceutica NV, priority 2014, dated 2019).
Read-outs that look alike come from different tables or passages of the source.

Key:
human mGlu2 receptor = target: T1, human mGlu2 receptor (Homo sapiens, UniProt Q14416); test: [35S]GTPγS binding assay (mGluR2 negative allosteric modulation, glutamate ~EC80 60 μM); format: biochemical; conditions: for Emax: read-out: GTPγS-hmGluR2 anGT Emax; for IC50: glutamate ~EC80 (60 μM), pIC50 = −log IC50 (M)
T1 construct: expressed in transfected cells; host or cells: CHO cells
Experimental: 1) [^35S]GTPγS Binding Assay
[^35S]GTPγS Binding Assay
Total reaction volume was 200 μl. […] Membrane-bound radioactivity was counted in a Topcount.

[1] = maximal % inhibition relative to the control glutamate response (EC80 glutamate)
[2] = membranes from CHO cells transfected with human mGlu2 receptor, read-out: GTPγS-hmGluR2 anGT pIC50 (converted)

T1 sequence (Q14416 19-872): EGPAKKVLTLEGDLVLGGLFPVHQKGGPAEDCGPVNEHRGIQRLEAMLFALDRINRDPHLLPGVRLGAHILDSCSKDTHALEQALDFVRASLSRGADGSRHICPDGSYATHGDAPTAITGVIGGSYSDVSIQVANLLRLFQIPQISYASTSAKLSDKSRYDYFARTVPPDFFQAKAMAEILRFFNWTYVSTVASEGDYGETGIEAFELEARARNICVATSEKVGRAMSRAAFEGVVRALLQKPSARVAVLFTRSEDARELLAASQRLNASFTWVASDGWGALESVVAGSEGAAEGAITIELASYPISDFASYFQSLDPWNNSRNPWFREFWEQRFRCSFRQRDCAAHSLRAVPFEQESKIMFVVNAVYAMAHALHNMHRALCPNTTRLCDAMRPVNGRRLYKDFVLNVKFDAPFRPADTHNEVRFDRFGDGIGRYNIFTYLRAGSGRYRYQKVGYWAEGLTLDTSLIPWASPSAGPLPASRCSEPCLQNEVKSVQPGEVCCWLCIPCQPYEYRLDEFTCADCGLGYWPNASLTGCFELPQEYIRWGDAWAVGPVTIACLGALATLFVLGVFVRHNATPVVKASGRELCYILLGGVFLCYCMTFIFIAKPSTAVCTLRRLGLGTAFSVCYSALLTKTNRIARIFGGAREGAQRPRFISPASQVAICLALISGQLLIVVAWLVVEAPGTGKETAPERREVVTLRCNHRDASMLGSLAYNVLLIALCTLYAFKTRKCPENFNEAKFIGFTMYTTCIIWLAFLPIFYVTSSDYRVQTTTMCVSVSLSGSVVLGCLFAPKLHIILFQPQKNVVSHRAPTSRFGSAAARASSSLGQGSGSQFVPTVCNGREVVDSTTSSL

| Emax (human mGlu2 receptor; [1]) [%] | IC50 (human mGlu2 receptor; [2]) [M] | melting point [°C] | GTPγS-hmGluR2 anGT Emax (human mGlu2 receptor; [1]) [%] | SMILES | IC50 (human mGlu2 receptor; GTPγS-hmGluR2 anGT pIC50, membranes from CHO cells transfected with human mGlu2 receptor) [M] | Emax (human mGlu2 receptor) [%] |
| --- | --- | --- | --- | --- | --- | --- |
| 104 | 1.12e-07 | 278.58 |  | C[C@H]1CN(c2ccc(C(F)(F)F)cc2)C(=O)c2c(NC(=O)c3ccc(C(N)=O)cn3)cnn21 [Co. No. 82, N2-[(7S)-7-Methyl-4-oxo-5-[4-(trifluoromethyl)phenyl]-6,7-dihydropyrazolo[1,5-a]pyrazin-3-yl]pyridine-2,5-dicarboxamide] |  |  |
| 104 | 2.75e-08 | 120.37 |  | Cc1ncccc1C(=O)Nc1cnn2c1C(=O)N(c1ccc(C(F)(F)F)cc1)C[C@@H]2C [Co. No. 66] |  |  |
| 101 | 1.12e-07 | 277.42 |  | C[C@H]1CN(c2ccc(C(F)(F)F)cc2)C(=O)c2c(NC(=O)c3c[nH]cn3)cnn21 [Co. No. 83] |  |  |
| 114 | 1.12e-08 | 213.83 |  | COc1ncccc1C(=O)Nc1cnn2c1C(=O)N(c1ccc(C(F)(F)F)cc1)C[C@@H]2C [Co. No. 43] |  |  |
| 100 | 2.45e-07 | 285.92 |  | Cc1cc(C(=O)Nc2cnn3c2C(=O)N(c2ccc(C(F)(F)F)cc2)C[C@@H]3C)[nH]n1 [Co. No. 89] |  |  |
| 107 | 2.82e-08 | 289.4 |  | C[C@H]1CN(c2ccc(C(F)(F)F)cc2)C(=O)c2c(NC(=O)c3ccc(N)cn3)cnn21 [Co. No. 68, 5-Amino-N-[(7S)-7-methyl-4-oxo-5-[4-(trifluoromethyl)phenyl]-6,7-dihydropyrazolo[1,5-a]pyrazin-3-yl]pyridine-2-carboxamide] |  |  |
| 114 | 3.72e-09 | 136.53 |  | COc1cc(F)cc(C(=O)Nc2cnn3c2C(=O)N(c2ccc(C(F)(F)F)cc2)C[C@@H]3C)c1 [Co. No. 17] |  |  |
| 107 | 7.41e-09 | 134.44 |  | Cc1cc(C(=O)Nc2cnn3c2C(=O)N(c2ccc(C(F)(F)F)c(F)c2)C[C@@H]3C)ccn1 [Co. No. 130] |  |  |
| 106 | 5.89e-08 | 188.77 |  | COc1nc(N2C[C@H](C)n3ncc(NC(=O)c4ccccc4)c3C2=O)ccc1Cl [Co. No. 76, N-[(7S)-5-(5-Chloro-6-methoxy-2-pyridyl)-7-methyl-4-oxo-6,7-dihydropyrazolo[1,5-a]pyrazin-3-yl]benzamide] |  |  |
| 98 | 4.79e-08 | 152.2 |  | C[C@H]1CN(c2ccc(C(F)(F)F)cc2)C(=O)c2c(NC(=O)CC3CC3)cnn21 [Co. No. 73] |  |  |
| 106 | 6.03e-09 | 265 |  | CC(=O)Nc1ccc(C(=O)Nc2cnn3c2C(=O)N(c2ccc(C(F)(F)F)cc2)C[C@@H]3C)cn1 [Co. No. 159, 6-acetamido-N-[(7S)-7-methyl-4-oxo-5-[4-(trifluoromethyl)phenyl]-6,7-dihydropyrazolo[1,5-a]pyrazin-3-yl]pyridine-3-carboxamide] |  |  |
| 106 | 2.45e-08 | 89.55 |  | Cc1c(F)cncc1C(=O)Nc1cnn2c1C(=O)N(c1ccc(C(F)(F)F)cc1)C[C@@H]2C [Co. No. 136] |  |  |
| 107 | 2.04e-08 | 160.66 |  | COc1cccc(C(=O)Nc2cnn3c2C(=O)N(c2ccc(C(F)(F)F)c(OC)n2)C[C@@H]3C)c1 [Co. No. 56] |  |  |
| 108 | 2.29e-09 | 154.53 |  | Cc1cc(N2C[C@H](C)n3ncc(NC(=O)c4ccccc4)c3C2=O)ccc1C(F)(F)F [Co. No. 7] |  |  |
| 109 | 2.45e-09 | 124.01 |  | Cc1cc(C(=O)Nc2cnn3c2C(=O)N(c2ccc(C(F)(F)F)c(Cl)c2)C[C@@H]3C)cc(Cl)n1 [Co. No. 142] |  |  |
| 116 | 9.12e-09 | 185.41 |  | COc1ccc(F)c(C(=O)Nc2cnn3c2C(=O)N(c2ccc(C(F)(F)F)cc2)C[C@@H]3C)c1 [Co. No. 37] |  |  |
| 108 | 3.02e-09 | 170.75 |  | COCc1cncc(C(=O)Nc2cnn3c2C(=O)N(c2ccc(C(F)(F)F)c(Cl)c2)C[C@@H]3C)c1 [Co. No. 139] |  |  |
| 104 | 1.38e-08 | 225.63 |  | C[C@H]1CN(c2ccc(C(F)(F)F)cc2)C(=O)c2c(NC(=O)c3ccnc(N)c3)cnn21 [Co. No. 50] |  |  |
| 104 | 1.78e-08 | 198.98 |  | Cc1ccc(C(=O)Nc2cnn3c2C(=O)N(c2ccc(C(F)(F)F)cc2)C[C@@H]3C)cc1 [Co. No. 53] |  |  |
| 104 | 1.26e-08 | 237.65 |  | C[C@H]1CN(c2ccc(C(F)(F)F)cc2)C(=O)c2c(NC(=O)c3ccc(Cl)cn3)cnn21 [Co. No. 46] |  |  |
|  |  | 133.34 | 113 | C[C@H]1CN(c2ccc(C(F)F)c(Cl)c2)C(=O)c2c(NC(=O)c3ccc(N)nc3)cnn21 [Co. No. 40] |  |  |
| 103 | 2e-07 | 135.05 |  | C[C@H]1CN(c2ccc(C(F)(F)F)cc2)C(=O)c2c(NC(=O)Cc3ccccc3)cnn21 [Co. No. 87] |  |  |
| 108 | 3.8e-08 | 201.06 |  | COc1nc(N2C[C@H](C)n3ncc(NC(=O)c4ccccc4)c3C2=O)ccc1C(F)(F)F [Co. No. 70] |  |  |
| 111 | 3.16e-07 | 153.01 |  | C[C@H]1CN(c2ccccc2)C(=O)c2c(NC(=O)c3ccnc(N)c3)cnn21 [Co. No. 97] |  |  |
| 112 | 4.07e-09 | 130.79 |  | Cc1cc(C(=O)Nc2cnn3c2C(=O)N(c2ccc(C(F)(F)F)c(Cl)c2)C[C@@H]3C)c(C)cn1 [Co. No. 158] |  |  |
| 117 | 7.59e-09 | 250.03 |  | COc1nc(N2C[C@H](C)n3ncc(NC(=O)c4ccc(N)nc4)c3C2=O)ccc1C(F)(F)F [Co. No. 33] |  |  |
| 106 | 1.74e-08 | 153.4 |  | COc1cncc(C(=O)Nc2cnn3c2C(=O)N(c2ccc(Cl)cc2)C[C@@H]3C)c1 [Co. No. 137] |  |  |

Continued, molecule first:

| SMILES | Emax (human mGlu2 receptor; [1]) [%] | IC50 (human mGlu2 receptor; [2]) [M] | melting point [°C] | GTPγS-hmGluR2 anGT Emax (human mGlu2 receptor; [1]) [%] | IC50 (human mGlu2 receptor; GTPγS-hmGluR2 anGT pIC50, membranes from CHO cells transfected with human mGlu2 receptor) [M] | Emax (human mGlu2 receptor) [%] |
| --- | --- | --- | --- | --- | --- | --- |
| Cc1cc(C(=O)Nc2cnn3c2C(=O)N(c2ccc(C(F)(F)F)c(F)c2)C[C@@H]3C)cc(C)n1 [Co. No. 129] | 108 | 5.62e-09 | 148.36 |  |  |  |
| Cc1cc(C(=O)Nc2cnn3c2C(=O)N(c2ccc(C(F)(F)F)cc2)C[C@@H]3C)cc(N)n1 [Co. No. 162] | 107 | 2.75e-09 | 196.39 |  |  |  |
| C[C@H]1CN(c2ccc(C(F)(F)F)cc2)C(=O)c2c(NC(=O)c3cccc(S(=O)(=O)F)c3)cnn21 [Co. No. 217] |  |  | 161.88 |  | 1.07e-08 | 110 |
| COc1ccc(C(=O)Nc2cnn3c2C(=O)N(c2ccc(C(F)(F)F)cc2)C[C@@H]3C)cc1 [Co. No. 25] | 104 | 6.17e-09 | 164.82 |  |  |  |
| COc1cc(C(=O)Nc2cnn3c2C(=O)N(c2ccc(C(F)(F)F)cc2)C[C@@H]3C)ccn1 [Co. No. 47] | 101 | 1.29e-08 | 128.68 |  |  |  |
| Cc1cc(C(=O)Nc2cnn3c2C(=O)N(c2ccc(C(F)(F)F)c(Cl)c2)C[C@@H]3C)cc(N)n1 [Co. No. 174] | 106 | 1.66e-09 | 192.47 |  |  |  |
| COc1cc(N2C[C@H](C)n3ncc(NC(=O)c4cc(C)nc(C)c4)c3C2=O)ccc1C(F)(F)F [Co. No. 125] | 104 | 4.07e-09 | 226.99 |  |  |  |
| C[C@@H]1CN(c2ccc(C(F)(F)F)cc2)C(=O)c2c(NC(=O)c3cccnc3)cnn21 [Co. No. 188] | 105 | 2.45e-07 | 152.2 |  |  |  |
| C[C@H]1CN(c2ccc(C(F)(F)F)cc2)C(=O)c2c(NC(=O)c3ccc(C#N)cn3)cnn21 [Co. No. 85] | 106 | 1.66e-07 | 291.58 |  |  |  |
| C[C@H]1CN(c2ccc(C(F)(F)F)cc2)C(=O)c2c(NC(=O)c3cnn(C)c3)cnn21 [Co. No. 86] | 103 | 1.91e-07 | 167.59 |  |  |  |
| C[C@H]1CN(c2ccc(C(F)(F)F)cc2)C(=O)c2c(NC(=O)c3cccc(O)c3)cnn21 [Co. No. 144] | 115 | 2.04e-09 | 240.46 |  |  |  |
| COc1ccc(C(=O)Nc2cnn3c2C(=O)N(c2ccc(C(F)(F)F)c(OC)n2)C[C@@H]3C)cc1 [Co. No. 77] | 103 | 7.76e-08 | 194.9 |  |  |  |
| C[C@H]1CN(c2ccc(C(F)(F)F)cc2)C(=O)c2c(NC(=O)c3ccc(F)cc3)cnn21 [Co. No. 49] | 101 | 1.32e-08 | 119.36 |  |  |  |
| COc1cc(C(=O)Nc2cnn3c2C(=O)N(c2ccc(C(F)(F)F)cc2)C[C@@H]3C)ccc1F [Co. No. 51] | 113 | 1.45e-08 | 140.98 |  |  |  |
| COc1ccc(C(=O)Nc2cnn3c2C(=O)N(c2ccc(C(F)(F)F)cc2)C[C@@H]3C)cc1F [Co. No. 23] | 105 | 5.5e-09 | 152.43 |  |  |  |
| COCC1CN(c2ccc(C(F)(F)F)cc2)C(=O)c2c(NC(=O)c3ccccc3F)cnn21 (single isomer, unassigned) [Co. No. 62b] |  | 4.79e-06 | 162.51 | 66 |  |  |
| C[C@H]1CN(c2ccc(C(F)(F)F)cc2)C(=O)c2c(NC(=O)C3CCOCC3)cnn21 [Co. No. 186] | 106 | 7.08e-07 | 142.94 |  |  |  |
| Cc1nccc(C(=O)Nc2cnn3c2C(=O)N(c2ccc(C(F)(F)F)cc2)C[C@@H]3C)c1C [Co. No. 156] |  | 2.4e-08 | 182.69 | 113 |  |  |
